For orientation: inhibition means the percentage by which the read-out fell short of the control. One may read the Ki as a measure of affinity in units of concentration, obtained from inhibition or displacement. A low value points to tighter binding.

This note sets out measurements from ChEMBL document CHEMBL2346567, “Selective aminopeptidase-N (CD13) inhibitors with relevance to cancer chemotherapy” (Bioorg Med Chem, 2013).

Activity calls are given as the source filed them. No cut-off for these calls is given here.

Series [1] concerns the target 72 kDa type IV collagenase (Homo sapiens) (UniProt P08253). The series is described as follows: Inhibition of MMP2 (unknown origin) up to 50 uM.
Series [2] has as its target Matrix metalloproteinase-9 (Homo sapiens) (UniProt P14780). The experiment in a line: Inhibition of MMP9 (unknown origin) up to 50 uM.
Series [3] addresses T1, Stromelysin-3 (Homo sapiens) (UniProt P24347).
T1 sequence (whole entry): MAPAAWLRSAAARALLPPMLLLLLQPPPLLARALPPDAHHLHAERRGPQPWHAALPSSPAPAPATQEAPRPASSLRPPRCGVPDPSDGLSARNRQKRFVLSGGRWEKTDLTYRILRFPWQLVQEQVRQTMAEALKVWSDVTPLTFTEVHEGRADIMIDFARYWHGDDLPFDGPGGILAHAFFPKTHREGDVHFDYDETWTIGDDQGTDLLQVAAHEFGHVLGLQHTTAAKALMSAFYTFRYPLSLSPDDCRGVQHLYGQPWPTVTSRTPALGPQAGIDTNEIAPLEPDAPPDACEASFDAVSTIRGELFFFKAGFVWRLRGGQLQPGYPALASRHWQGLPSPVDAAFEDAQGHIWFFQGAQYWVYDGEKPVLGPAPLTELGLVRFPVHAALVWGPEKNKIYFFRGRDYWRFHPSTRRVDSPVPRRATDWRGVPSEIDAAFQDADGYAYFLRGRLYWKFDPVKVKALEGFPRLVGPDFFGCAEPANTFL
The series is described as follows: Inhibition of MMP11 (unknown origin) up to 50 uM.

Series [4] relates to HUVEC. The series is described as follows: Antiangiogenic activity against human HUVEC cells assessed as inhibition of capillary tube formation at 10 uM after 24 hrs by phase contrast microscopic analysis. The class given is functional, cell-based.
The target of series [5] is Collagenase 3 (Homo sapiens) (UniProt P45452). The experiment in a line: Inhibition of MMP13 (unknown origin) up to 50 uM.
Series [6] deals with Aminopeptidase N (Homo sapiens, UniProt P15144).
Chain of Aminopeptidase N (Homo sapiens, UniProt P15144) (P15144 whole entry): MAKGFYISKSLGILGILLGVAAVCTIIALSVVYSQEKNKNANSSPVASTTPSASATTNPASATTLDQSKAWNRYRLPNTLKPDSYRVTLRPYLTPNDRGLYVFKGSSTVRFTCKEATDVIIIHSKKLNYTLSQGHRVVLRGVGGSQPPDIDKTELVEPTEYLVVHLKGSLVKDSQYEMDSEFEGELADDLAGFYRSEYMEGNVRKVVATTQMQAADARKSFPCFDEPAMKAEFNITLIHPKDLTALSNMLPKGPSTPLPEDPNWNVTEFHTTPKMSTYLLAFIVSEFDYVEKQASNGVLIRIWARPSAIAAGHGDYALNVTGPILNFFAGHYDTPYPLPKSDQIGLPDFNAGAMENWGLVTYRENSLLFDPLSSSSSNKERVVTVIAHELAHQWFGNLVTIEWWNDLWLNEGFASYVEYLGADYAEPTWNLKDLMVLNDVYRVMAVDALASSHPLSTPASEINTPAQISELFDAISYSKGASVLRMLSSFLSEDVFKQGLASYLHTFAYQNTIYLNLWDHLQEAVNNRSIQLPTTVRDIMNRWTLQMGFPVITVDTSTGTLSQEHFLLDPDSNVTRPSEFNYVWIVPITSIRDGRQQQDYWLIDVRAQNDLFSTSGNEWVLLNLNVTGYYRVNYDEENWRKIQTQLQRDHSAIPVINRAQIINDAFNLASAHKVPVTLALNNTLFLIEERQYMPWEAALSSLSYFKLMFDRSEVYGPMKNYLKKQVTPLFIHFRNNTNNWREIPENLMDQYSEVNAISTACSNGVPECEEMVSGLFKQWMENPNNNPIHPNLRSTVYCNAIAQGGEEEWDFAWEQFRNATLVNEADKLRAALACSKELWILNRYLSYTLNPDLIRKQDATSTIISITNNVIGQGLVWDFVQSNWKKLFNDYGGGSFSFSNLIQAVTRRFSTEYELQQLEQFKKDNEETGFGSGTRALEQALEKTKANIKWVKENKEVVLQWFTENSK
Description: Inhibition of human APN using L-leucine-p-nitroanilide as substrate measured every 10 mins for 2 hrs by spectrophotometric analysis
Series [7] is described as follows: Cytotoxicity against human HUVEC cells assessed as concentration of compound causing 50% cell death after 24 hrs. The note with it: read-out: Activity. The class given is cell-based.
The target of series [8] is Macrophage metalloelastase (Homo sapiens) (UniProt P39900). The experiment in a line: Inhibition of MMP12 (unknown origin) up to 50 uM.
Chain of Macrophage metalloelastase (Homo sapiens) (P39900 106-470 limits assumed): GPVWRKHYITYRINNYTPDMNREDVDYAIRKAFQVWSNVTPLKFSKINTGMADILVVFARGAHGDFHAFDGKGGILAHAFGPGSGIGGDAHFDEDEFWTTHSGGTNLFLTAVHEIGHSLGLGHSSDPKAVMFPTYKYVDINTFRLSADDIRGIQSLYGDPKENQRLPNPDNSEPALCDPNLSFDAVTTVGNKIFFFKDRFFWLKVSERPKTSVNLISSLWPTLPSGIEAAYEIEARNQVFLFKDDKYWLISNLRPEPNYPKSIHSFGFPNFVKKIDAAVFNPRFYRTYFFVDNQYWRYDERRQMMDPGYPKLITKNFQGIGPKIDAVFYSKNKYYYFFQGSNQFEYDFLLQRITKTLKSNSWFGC
Series [9] relates to Caco-2. The experiment in a line: Antimigratory activity against human Caco2/TC7 cells after 16 hrs by wound healing assay. The class given is functional, cell-based.
Series [10] in a line: Antitumor activity against human colon cancer cells expressing low level of APN xenografted in athymic nude mouse at 30 mg/kg, ip administered once every 3 days relative to control. The class given is functional. Particulars: Cancer cell lines, 72 h, route intraperitoneal, read-out: TGI. In general terms: A xenograft is tissue or cells of one species grown in another, often human tumour cells in immunodeficient mice.

Series [11] can be described thus: Chemical stability of the compound in DMSO solution at 5 mg/ml after 20 days at 4 degC. The class given is physicochemical. Particulars: 480 h.
Series [12] concerns HUVEC. The series is described as follows: Antimigratory activity against human HUVEC cells at 0.01 uM after 16 hrs by wound healing assay. The class given is functional, cell-based.
The nature of series [13]: Antitumor activity against human colon cancer cells expressing high level of APN xenografted in athymic nude mouse at 30 mg/kg, ip administered once every 3 days relative to control. The class given is functional. The note with it: Cancer cell lines, 72 h, route intraperitoneal, read-out: TGI.
Series [14] has as its system HUVEC. The experiment in a line: Antimigratory activity against human HUVEC cells at 0.1 to 1 uM after 16 hrs by wound healing assay. The class given is functional, cell-based.
Series [15] is described as follows: Antimigratory activity against human Caco2/TC7 cells at 0.1 uM after 16 hrs by wound healing assay. The class given is functional, Caco-2.
Series [16] has as its system HUVEC. The series is described as follows: Antiangiogenic activity against human HUVEC cells assessed as inhibition of capillary tube formation at 1 uM after 24 hrs by phase contrast microscopic analysis. The class given is functional, cell-based.
Series [17] concerns A673. The series is described as follows: Antiangiogenic activity against human A673 cells xenografted in athymic nude mouse assessed as reduction in microvessel density at 30 mg/kg, ip administered as single dose measured on day 26 relative to control. The class given is functional, organism-based. Set-up: dose 30 mg/kg.
Series [18] has as its system HUVEC. The experiment in a line: Antimigratory activity against human HUVEC cells assessed as inhibition of VEGF-induced migration at 1 uM after 16 hrs by Boyden chamber assay. The class given is functional.
The subject of series [19] is A673. The experiment in a line: Antitumor activity against human A673 cells xenografted in athymic nude mouse assessed as tumor growth inhibition at 30 mg/kg, ip administered as single dose measured on day 26 relative to control. The class given is functional. Particulars: 624 h, route intraperitoneal, read-out: TGI.
A short description of series [20]: Antimigratory activity against human Caco2/TC7 cells at 1 uM after 16 hrs by wound healing assay. The class given is functional, Caco-2.
The subject of series [21] is Mus musculus. The series is described as follows: Toxicity in Swiss nude mouse assessed as adverse effects at 40 mg/kg, ip administered once every 3 days 8 times measured after 29 days. The arrangement: dose 40 mg/kg, route intraperitoneal. The class given is organism-based. Particulars: in vivo, 696 h.
The subject of series [22] is HT-29. The series is described as follows: Antitumor activity against human HT-29 cells expressing low level of APN xenografted in athymic nude mouse at 30 mg/kg, ip administered once every 3 days relative to control. The class given is functional. The note with it: HT-29, ip, 72 h, route intraperitoneal, read-out: TGI.
The nature of series [23]: Chemical stability of the compound in DMSO solution at 5 mg/ml after 20 days at 25 degC. Particulars: 480 h. The class given is physicochemical.
In series [24] the test system is HUVEC. The experiment in a line: Antimigratory activity against human HUVEC cells after 16 hrs by wound healing assay. The class given is functional, cell-based.
Series [25] deals with T2, Aminopeptidase N (Mus musculus, UniProt P97449).
T2 sequence (P97449 whole entry): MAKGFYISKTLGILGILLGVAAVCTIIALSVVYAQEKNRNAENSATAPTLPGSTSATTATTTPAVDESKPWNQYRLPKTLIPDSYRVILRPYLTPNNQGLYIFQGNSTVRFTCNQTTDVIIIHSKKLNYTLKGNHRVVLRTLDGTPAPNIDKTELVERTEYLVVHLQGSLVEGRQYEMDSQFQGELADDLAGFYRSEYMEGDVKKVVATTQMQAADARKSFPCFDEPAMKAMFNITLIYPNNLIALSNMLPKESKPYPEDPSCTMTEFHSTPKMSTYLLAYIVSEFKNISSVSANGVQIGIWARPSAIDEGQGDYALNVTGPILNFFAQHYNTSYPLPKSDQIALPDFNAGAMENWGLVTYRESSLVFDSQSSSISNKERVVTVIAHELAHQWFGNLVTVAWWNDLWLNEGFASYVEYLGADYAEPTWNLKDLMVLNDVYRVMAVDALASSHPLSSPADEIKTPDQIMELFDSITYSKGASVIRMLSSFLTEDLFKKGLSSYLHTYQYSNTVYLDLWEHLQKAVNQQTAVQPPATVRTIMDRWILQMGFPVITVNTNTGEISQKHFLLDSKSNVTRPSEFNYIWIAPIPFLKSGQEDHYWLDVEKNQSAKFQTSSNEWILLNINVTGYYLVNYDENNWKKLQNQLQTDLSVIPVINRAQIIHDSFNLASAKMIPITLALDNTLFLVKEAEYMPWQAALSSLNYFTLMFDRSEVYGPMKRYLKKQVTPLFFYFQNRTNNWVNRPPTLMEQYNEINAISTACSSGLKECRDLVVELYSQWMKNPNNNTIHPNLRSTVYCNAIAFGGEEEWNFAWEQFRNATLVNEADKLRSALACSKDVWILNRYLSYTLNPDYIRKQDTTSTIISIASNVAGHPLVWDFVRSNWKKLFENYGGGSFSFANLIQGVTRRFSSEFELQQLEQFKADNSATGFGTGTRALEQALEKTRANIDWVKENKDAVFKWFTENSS
The series is described as follows: Inhibition of mouse APN using L-leucine-p-nitroanilide as substrate measured every 10 mins for 2 hrs by spectrophotometric analysis.

Series [26] in a line: Chemical stability of the compound in DMSO solution at 5 mg/ml after 20 days at -20 degC. The class given is physicochemical. Particulars: 480 h.
Series [27] has as its system HUVEC. The series is described as follows: Antiangiogenic activity against human HUVEC cells assessed as inhibition of capillary tube formation at 300 uM after 24 hrs by phase contrast microscopic analysis. The class given is functional, cell-based.
The subject of series [28] is Mus musculus. The experiment in a line: Toxicity in Swiss nude mouse assessed as transient body weight loss at 100 mg/kg, ip measured up to 2 days relative to control. Set-up: dose 100 mg/kg, route intraperitoneal. The note with it: in vivo, 48 h. The class given is organism-based.
Series [29] has as its system Mus musculus. The series is described as follows: Toxicity in Swiss nude mouse assessed as convulsions at 100 mg/kg, ip administered once every 3 days 4 times measured post second-dose. Particulars: in vivo, 72 h. Set-up: dose 100 mg/kg, route intraperitoneal. The class given is organism-based.
For series [30], the system named is A673. The series is described as follows: Antiangiogenic activity against human A673 cells xenografted in athymic nude mouse assessed as reduction in microvessel density at 40 mg/kg, ip administered as single dose measured on day 26 relative to control. The class given is functional, organism-based. Set-up: dose 40 mg/kg.
In series [31] the test system is Mus musculus. The experiment in a line: Toxicity in Swiss nude mouse assessed as catalepsy at 70 mg/kg, ip administered once every 3 days 8 times measured post second-dose. The class given is organism-based. The arrangement: dose 70 mg/kg, route intraperitoneal. Particulars: in vivo, 72 h.
Series [32] relates to HUVEC. The series is described as follows: Antimigratory activity against human HUVEC cells assessed as inhibition of VEGF-induced migration at 0.1 uM after 16 hrs by Boyden chamber assay. The class given is functional.
The test system of series [33] is Caco-2. The series is described as follows: Antimigratory activity against human Caco2/TC7 cells up to 1 uM after 16 hrs by wound healing assay. The class given is functional, cell-based.
The subject of series [34] is A673. The series is described as follows: Antitumor activity against human A673 cells xenografted in athymic nude mouse assessed as tumor growth inhibition at 40 mg/kg, ip administered as single dose measured on day 26 relative to control. The class given is functional. Particulars: 624 h, route intraperitoneal, read-out: TGI.

Chain of Matrix metalloproteinase-9 (Homo sapiens) (P14780 whole entry): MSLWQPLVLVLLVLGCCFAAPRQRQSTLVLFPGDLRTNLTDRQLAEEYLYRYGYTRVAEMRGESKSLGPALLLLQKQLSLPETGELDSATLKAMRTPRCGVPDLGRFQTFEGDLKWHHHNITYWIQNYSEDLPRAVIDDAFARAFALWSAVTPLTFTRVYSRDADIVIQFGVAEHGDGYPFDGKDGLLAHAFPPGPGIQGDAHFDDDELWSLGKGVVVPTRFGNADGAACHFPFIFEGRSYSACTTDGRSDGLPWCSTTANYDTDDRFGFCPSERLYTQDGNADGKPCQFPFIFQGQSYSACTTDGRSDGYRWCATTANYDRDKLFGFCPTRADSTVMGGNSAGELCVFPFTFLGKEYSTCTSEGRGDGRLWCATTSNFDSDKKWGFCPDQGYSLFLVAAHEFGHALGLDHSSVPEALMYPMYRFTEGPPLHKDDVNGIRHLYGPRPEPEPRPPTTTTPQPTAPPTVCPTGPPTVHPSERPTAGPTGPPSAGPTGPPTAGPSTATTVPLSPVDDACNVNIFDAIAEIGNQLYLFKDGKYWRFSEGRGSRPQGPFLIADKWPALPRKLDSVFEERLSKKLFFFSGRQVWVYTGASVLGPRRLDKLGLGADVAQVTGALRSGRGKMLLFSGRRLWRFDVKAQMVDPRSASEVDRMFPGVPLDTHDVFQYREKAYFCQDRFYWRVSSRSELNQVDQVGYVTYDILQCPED
Chain of 72 kDa type IV collagenase (Homo sapiens) (P08253 110-660 limits assumed): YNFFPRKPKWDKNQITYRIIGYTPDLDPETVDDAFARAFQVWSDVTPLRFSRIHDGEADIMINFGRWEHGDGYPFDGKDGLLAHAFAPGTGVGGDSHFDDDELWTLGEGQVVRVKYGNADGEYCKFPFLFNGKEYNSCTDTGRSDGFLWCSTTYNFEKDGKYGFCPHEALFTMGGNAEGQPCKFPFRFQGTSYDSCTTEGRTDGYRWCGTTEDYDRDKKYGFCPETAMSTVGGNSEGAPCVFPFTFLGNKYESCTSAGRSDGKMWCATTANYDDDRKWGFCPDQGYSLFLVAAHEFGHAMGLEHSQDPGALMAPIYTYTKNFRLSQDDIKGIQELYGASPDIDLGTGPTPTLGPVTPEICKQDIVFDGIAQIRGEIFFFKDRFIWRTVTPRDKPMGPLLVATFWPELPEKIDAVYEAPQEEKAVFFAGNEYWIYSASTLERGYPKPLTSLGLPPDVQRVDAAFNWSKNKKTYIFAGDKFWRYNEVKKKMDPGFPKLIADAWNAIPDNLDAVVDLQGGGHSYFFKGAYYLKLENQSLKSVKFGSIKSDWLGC

On to `NC1CCc2ccccc2CC1=O` (stereo unspecified), for which the inhibition result in [1], in series [2], in series [3], in [5] and in series [8] was “inactive” each time. Besides, the inhibition result in series [4] was “Active”. In series [6], the affinity, expressed as Ki, was 2 µM. In series [7], the CC50 at 24 h turned out to be 100 µM.

Take `NC1CCc2c(Br)ccc(-c3ccccc3)c2CC1=O` (stereo unspecified): the Activity result is “Dose-dependent effect” in [9]; 30% in series [15]; 40% in [20]; “Non-toxic” in [21]; “Dose-dependent effect” in series [24]. The inhibition in vivo at 30 mg/kg is 8% in series [10], 26% in [13], 44% in [19] and 15% in series [22]. Further, the inhibition entry in series [1], in series [2], in series [3], in series [5] and in [8] was “inactive” throughout. Moreover, the Stability result in [11], in series [23] and in series [26] was “Stable” throughout. Besides, the outcome in [12], in series [14] and in [17] was Active. The inhibition result in series [16] was “Active”. The inhibition at 1 µM in [18] was determined as 70%. In addition, affinity in series [25] was put at a Ki of 0.0002 µM. Further, the CC50 at 24 h in [7] was 10 µM.

On to `CC(C)C[C@H](NC(=O)[C@@H](O)[C@H](N)Cc1ccccc1)C(=O)O`, for which the inhibition result in [27] was “Active”.

Turning to `Cl.NC1CCc2cccc(-c3ccccc3)c2CC1=O` (stereo unspecified), the Activity result was “Dose-dependent effect” in [9]; “Toxic” in [28]; “Toxic” in series [29]; “Toxic” in series [31]; “Non-toxic” in [21]; “Dose-dependent effect” in series [24]. In addition, the inhibition entry in series [1], in series [2], in series [3], in [5] and in series [8] was “inactive” in each case. In addition, the Stability result in [11], in [23] and in series [26] was “Stable” each time. Moreover, the result in series [14] was Active. Besides, the result in series [30] and in series [33] was inactive. In series [16], the inhibition entry was “Active”. In addition, the inhibition at 0.1 µM in series [32] is 70%. The inhibition in vivo at 40 mg/kg in series [34] was found to be 18%. Also, the values for the Ki in series [25] and in [6] were 0.01 µM and 0.011 µM, respectively. For the same compound, the CC50 at 24 h in [7] was found to be 20 µM.
